# From patent publication US6635771B2, “N-benzhydryl indole compounds” (Wyeth, priority 2001, dated 2003)
# Molecular target: T1, cPLA2 (Homo sapiens, UniProt P47712)
# T1 sequence (P47712 1-749): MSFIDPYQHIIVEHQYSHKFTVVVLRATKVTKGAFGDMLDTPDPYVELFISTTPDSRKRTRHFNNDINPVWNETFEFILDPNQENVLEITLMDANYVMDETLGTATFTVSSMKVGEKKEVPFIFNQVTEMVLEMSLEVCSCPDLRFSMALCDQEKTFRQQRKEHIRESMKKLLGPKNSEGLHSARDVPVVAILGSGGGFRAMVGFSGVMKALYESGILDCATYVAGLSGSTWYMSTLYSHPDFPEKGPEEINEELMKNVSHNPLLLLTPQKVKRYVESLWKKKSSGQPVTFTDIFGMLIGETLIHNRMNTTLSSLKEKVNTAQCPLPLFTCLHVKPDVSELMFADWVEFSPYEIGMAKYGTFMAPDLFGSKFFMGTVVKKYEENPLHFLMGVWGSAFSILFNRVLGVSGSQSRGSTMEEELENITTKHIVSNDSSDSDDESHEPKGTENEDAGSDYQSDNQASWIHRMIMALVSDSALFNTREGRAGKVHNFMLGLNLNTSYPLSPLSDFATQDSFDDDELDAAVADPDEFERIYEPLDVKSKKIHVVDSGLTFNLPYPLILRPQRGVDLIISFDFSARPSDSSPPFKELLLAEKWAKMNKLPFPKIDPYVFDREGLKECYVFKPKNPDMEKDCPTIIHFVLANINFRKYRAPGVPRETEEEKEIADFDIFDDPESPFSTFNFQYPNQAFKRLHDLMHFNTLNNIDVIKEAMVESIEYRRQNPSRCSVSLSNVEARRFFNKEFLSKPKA
# Assay: Coumarine Assay
# Format: biochemical
# Settings: 60 μM 7-hydroxycoumarinyl 6-heptenoate substrate, 4 μg cPLA2, pH 7.5, fluorescence ex 360 nm / em 460 nm; read-out: Coumarin IC50
# Method: Inhibitors were mixed with 200 μL assay buffer (80 mM Heped, pH 7.5, 1 mM EDTA) containing 60 μM 7-hydroxycoumarinyl 6-heptenoate. The reaction was initiated by adding 4 μg cPLA2 in 50 μL assay buffer. Hydrolysis of the 7-hydroxycounarimyl 6-heptenoate ester was monitored in a fluorometer by exciting at 360 nm and monitoring emission at 460 nm. Enzyme activity is proportional to the increase in emission at 460 nm per minute. In the presence of a cPLA2 inhibitor, the rate of increase is less.
row,Compound,IC50 [nM]
1,O=C(O)c1ccc(OCCc2c(CCNS(=O)(=O)Cc3ccccn3)n(C(c3ccccc3)c3ccccc3)c3ccc(Cl)cc23)cc1 [Example 51],2200
2,"O=C(O)c1ccc(S(=O)(=O)CCc2c(CCNS(=O)(=O)Cc3ccc(Cl)c(Cl)c3)n(C(c3ccccc3)c3ccccc3)c3ccc(Cl)cc23)cc1 [Example 140, 4-({2-[1-benzhydryl-5-chloro-2-(2-{[(3,4-dichlorobenzyl)sulfonyl]amino}ethyl)1H-indol-3-yl]ethyl}sulfonyl)benzoic acid]",200
3,"O=C(O)c1ccc(OCCc2c(CCNS(=O)(=O)CCNc3ccccc3)n(C(c3ccccc3)c3ccccc3)c3ccc(Cl)cc23)cc1 [Example 89, 4-(2-{1-Benzhydryl-5-chloro-2-[2-(2-phenylamino-ethanesulfonylamino)-ethyl]-1H-indol-3-yl}-ethoxy)-benzoic acid]",380
4,O=C(O)c1ccc(OCCc2c(CCNS(=O)(=O)Cc3ccc(C(F)(F)F)cc3)n(C(c3ccccc3)c3ccccc3)c3ccc(Cl)cc23)cc1 [Example 13],640
5,O=C(O)c1ccc(OCCc2c(CCNS(=O)(=O)Cc3ccc(Cl)c(Cl)n3)n(C(c3ccccc3)c3ccccc3)c3ccc(Cl)cc23)cc1 [Example 76],400
6,"Cc1ccccc1SCS(=O)(=O)NCCc1c(CCOc2ccc(C(=O)O)cc2)c2cc(Cl)ccc2n1C(c1ccccc1)c1ccccc1 [Example 118, 4-{2-[1-benzhydryl-5-chloro-2-(2-o-tolylsulfanylmethanesulfonylamino-ethyl)-1H-indol-3-yl]-ethoxy}-benzoic acid]",400
7,"O=C(O)c1ccc(OCCc2c(CCNS(=O)(=O)Cc3ccc4ccccc4c3)n(C(c3ccccc3)c3ccccc3)c3ccc(Cl)cc23)cc1 [Example 19, 4-{2-[1-benzhydryl-5-chloro-2-(2{[(2-naphthylmethyl)sulfonyl]amino}ethyl)-1H-indol-3-yl]ethoxy}benzoic acid]",310
8,"O=C(O)c1ccc(OCCc2c(CCNS(=O)(=O)CCN3CCC(O)CC3)n(C(c3ccccc3)c3ccccc3)c3ccc(Cl)cc23)cc1 [Example 123, 4-[2-(1-Benzhydryl-5-chloro-2-{2-[2-(4-hydroxy-piperidin-1-yl)-ethanesulfonylamino]-ethyl}-1H-indol-3-yl)-ethoxy]-benzoic acid]",1700
9,"O=C(O)c1ccc(OCCc2c(CCNS(=O)(=O)Cc3c(Cl)cccc3Cl)n(C(c3ccccc3)c3ccccc3)c3ccc(Cl)cc23)cc1 [Example 73, 4-{2-[1-Benzhydryl-5-chloro-2-(2-{[(2-dichlorobenzyl)sulfonyl]amino}ethyl)-1H-indol-3-yl]ethoxy}benzoic acid]",300
10,"O=C(O)c1ccc(OCCc2c(CCNS(=O)(=O)Cc3ccsc3)n(C(c3ccccc3)c3ccccc3)c3ccc(Cl)cc23)cc1 [Example 112, 4-{2-[1-Benzhydryl-5-chloro-2-(2-{[(3-thienylmethyl)sulfonyl]amino}ethyl)-1H-indol-3-yl]ethoxy}benzoic acid]",1200
11,"O=C(O)c1ccc(OCCc2c(CCNS(=O)(=O)CCn3cnnn3)n(C(c3ccccc3)c3ccccc3)c3ccc(Cl)cc23)cc1 [Example 104, 4-(2-{1-benzhydryl-5-chloro-2-[2-(2-tetrazol-1-yl-ethanesulfonylamino)-ethyl]-1H-indol-3-yl}ethoxy)benzoic acid]",1100
12,"O=C(O)c1ccc(CCCc2c(CCNS(=O)(=O)Cc3c(F)cccc3F)n(C(c3ccccc3)c3ccccc3)c3ccc(Cl)cc23)cc1 [Example 126, 4-{3-[1-benzhydryl-5-chloro-2-{2-([(2,6-difluorobenzyl)sulfonyl]amino}ethyl)-1H-indol-3-yl]propyl}benzoic acid]",200
13,"O=C(O)c1ccc(CCCc2c(CCNS(=O)(=O)Cc3cccc([N+](=O)[O-])c3)n(C(c3ccccc3)c3ccccc3)c3ccc(Cl)cc23)cc1 [Example 65, 4-{3-[1-benzhydryl-5-chloro-2-(2-{[(3-nitrobenzyl)sulfonyl]amino}ethyl)-1H-indol-3-yl]propyl}benzoic acid]",130
14,"O=C(O)c1ccc(OCCc2c(CCNS(=O)(=O)Cc3c(Cl)cccc3Cl)n(C(c3ccccc3)c3ccccc3)c3ccc(Cl)cc23)cc1 [Example 80, 4-{2-[1-Benzhydryl-5-chloro-2-(2-{[(2,6-dichlorobenzyl)sulfonyl]amino}ethyl)-1H-indol-3-yl]ethoxy}benzoic acid]",3700
15,"O=C(O)c1ccc(OCCc2c(CCNS(=O)(=O)Cc3ccc(F)c(F)c3)n(C(c3ccccc3)c3ccccc3)c3ccc(Cl)cc23)cc1 [Example 18, 4-{2-[1-Benzhydryl-5-chloro-2-(2{[(3,4-difluorobenzyl)sulfonyl]amino}-ethyl)-1H-indol-3-yl]ethoxy}benzoic acid]",400
16,Cc1cccc(Cl)c1SCS(=O)(=O)NCCc1c(CCOc2ccc(C(=O)O)cc2)c2cc(Cl)ccc2n1C(c1ccccc1)c1ccccc1 [Example 84],500
17,"C[C@@H]1CCC[C@H](C)N1CCS(=O)(=O)NCCc1c(CCOc2ccc(C(=O)O)cc2)c2cc(Cl)ccc2n1C(c1ccccc1)c1ccccc1 [Example 96, 4-[2-(1-benzhydryl-5-chloro-2-{2-[({2-[(2R,6S)-2,6-dimethyl-1-piperidinyl]ethyl}sulfonyl)amino]ethyl}-1H-indol-3-yl)ethoxy]benzoic acid]",950
18,O=C(O)c1ccc(OCCc2c(CCNS(=O)(=O)CSc3ccccc3Cl)n(C(c3ccccc3)c3ccccc3)c3ccc(Cl)cc23)cc1 [Example 119],400
19,"O=C(O)c1ccc(CCCc2c(CCNS(=O)(=O)Cc3ccc(C(F)(F)F)cc3)n(C(c3ccccc3)c3ccccc3)c3ccc(Cl)cc23)cc1 [Example 58, 4-(3-{1-benzhydryl-5-chloro-2-[2-({[4-(trifluoromethyl)benzyl]sulfonyl}amino)ethyl]-1H-indol-3-yl}propyl)benzoic acid]",360
20,"O=C(O)CCc1ccc(S(=O)(=O)CCc2c(CCNS(=O)(=O)Cc3ccccc3F)n(C(c3ccccc3)c3ccccc3)c3ccc(Cl)cc23)cc1 [Example 132, 3-[4-({2-[1-benzhydryl-5-chloro-2-(2-{[(2-fluorobenzyl)sulfonyl]amino}ethyl)-1H-indol-3-yl]ethyl}sulfonyl)phenyl] propanoic acid]",200
21,"CN(C)CC1CCCCN1CCS(=O)(=O)NCCc1c(CCOc2ccc(C(=O)O)cc2)c2cc(Cl)ccc2n1C(c1ccccc1)c1ccccc1 (stereo not shown) [Example 124, 4-[2-(1-Benzhydryl-5-chloro-2-{2-[2-(2-dimethylaminomethyl-piperidin-1-yl)-ethanesulfonylamino]-ethyl}-1H-indol-3-yl)-ethoxy]-benzoic acid]",800
22,"O=C(O)c1ccc(OCCc2c(CCNS(=O)(=O)CCN3CCN(c4ccccn4)CC3)n(C(c3ccccc3)c3ccccc3)c3ccc(Cl)cc23)cc1 [Example 91, 4-[2-(1-benzhydryl-5-chloro-2-{2-[({2-[4-(2-pyridinyl)-1-piperazinyl]ethyl}sulfonyl)amino]ethyl}-1H-indol-3-yl)ethoxy]benzoic acid]",500
23,"O=C(O)CCc1ccc(S(=O)(=O)CCc2c(CCNS(=O)(=O)Cc3ccccc3Cl)n(C(c3ccccc3)c3ccccc3)c3ccc(Cl)cc23)cc1 [Example 133, 3-[4-({2-[1-benzhydryl-5-chloro-2-(2-{[(2-chlorobenzyl)sulfonyl]amino}ethyl)-1H-indol-3-yl]ethyl}sulfonyl)phenyl]propanoic acid]",90
24,O=C(O)c1ccc(S(=O)(=O)CCc2c(CCNS(=O)(=O)Cc3ccccc3)n(C(c3ccccc3)c3ccccc3)c3ccc(Cl)cc23)cc1 [Example 135],200
25,"O=C(O)c1ccc(CCCc2c(CCNS(=O)(=O)Cc3ccncc3)n(C(c3ccccc3)c3ccccc3)c3ccc(Cl)cc23)cc1 [Example 63, 4-{3-[1-benzhydryl-5-chloro-2-(2-{[(4-pyridinylmethyl)sulfonyl]amino}ethyl)-1H-indol-3-yl]propyl}benzoic acid]",300
26,"Nc1ccccc1CS(=O)(=O)NCCc1c(CCCc2ccc(C(=O)O)cc2)c2cc(Cl)ccc2n1C(c1ccccc1)c1ccccc1 [Example 69, 4-{3-[2-(2-{[(2-aminobenzyl)sulfonyl]amino}ethyl)-1-benzhydryl-5-chloro-1H-indol-3-yl]propyl}benzoic acid]",150
27,"O=C(O)c1ccc(OCCc2c(CCNS(=O)(=O)CSc3c(Cl)cccc3Cl)n(C(c3ccccc3)c3ccccc3)c3ccc(Cl)cc23)cc1 [Example 120, 4-(2-{1-benzhydryl-5-chloro-2-[2-(2,6-dichloro-phenylsulfanylmethanesulfonylamino)-ethyl]-1H-indol-3-yl}-ethoxy)-benzoic acid]",400
28,"O=C(O)c1ccc(OCCc2c(CCNS(=O)(=O)Cc3ccc(S(=O)(=O)N4CCCCC4)cc3)n(C(c3ccccc3)c3ccccc3)c3ccc(Cl)cc23)cc1 [Example 38, 4-(2-{1-Benzhydryl-5-chloro-2-[2-({[4-(1piperidinylsulfonyl)benzyl]sulfonyl}amino)ethyl]-1H-indol-3-yl}ethoxy)benzoic acid]",500
